US20260078103A1, “ISOQUINOLONES AS PI3K INHIBITORS” (OnKure, Inc., priority 2022, published 2026)
Read-outs that look alike come from different tables or passages of the source.

Legend:
Type in all cases: cell-based
[1] = system: T47D cells expressing mutant PI3Ka (H1047R); test: In vitro cell proliferation, T47D cells (CellTiter-Glo); details: inhibition of proliferation, read-out: Avg T-47D EC50
Method in brief: (§1)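 1,500 cells/well seeded onto pre-stamped 10-pt dilution plates; T47D in RPMI + 10% FBS + insulin 0.2 units/mL, SKBR3 in McCoys 5a + 10% FBS. 72 h, 37 °C, 5% CO2. CTG readout. 0% = 0.1% DMSO, 100% = 10 uM Alpelisib; sigmoidal fit gives EC50.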

[2] = system: SKBR3 cells express WT PI3Ka; test: In vitro cell proliferation, SKBR3 cells (CellTiter-Glo); details: inhibition of proliferation
Method in brief: as §1

[3] = system: phosphorylation of AKT (pAKT) in T47D cells expressing mutant PI3Ka (H1047R); test: In vitro cell pAKT (Ser473) HTRF, T47D cells; details: cellular pAKT, T47D cells, mutant PI3Ka (H1047R), 6 hours, read-out: Avg T-47D IC50
Method in brief: (§2)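 T47D cells (RPMI, 10% FBS, 0.2 units/mL insulin) or SKBR3 cells (McCoy's 5a, 10% FBS) were seeded onto 10-point compound dilutions and incubated 6 h at 37 °C. After lysis, pAKT was detected overnight by HTRF (Eu cryptate/d2). IC50 was fitted from % inhibition relative to 0.1% DMSO and 10 uM alpelisib controls.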

[4] = system: phosphorylation of AKT (pAKT) in SKBR3 cells express WT PI3Ka; test: In vitro cell pAKT (Ser473) HTRF, SKBR3 cells; details: cellular pAKT
Method in brief: as §2

Compound	EC50 ([1]; Homo sapiens, T47D, 72 h) [nM]	EC50 ([2]; Homo sapiens, SK-BR-3, 72 h) [nM]	IC50 ([3]; Homo sapiens, T47D, 6 h) [nM]	IC50 ([4]; Homo sapiens, SK-BR-3, 6 h) [nM]	EC50 ([1]; 72 hours) [nM]	EC50 ([2]; 72 hours) [nM]	IC50 [3] [nM]	IC50 ([4]; 6 hours) [nM]
Cc1cnc(N2CCN(c3cc4c([C@@H](C)Nc5ccccc5C(=O)O)cc(F)cc4c(=O)n3C)CC2)s1 [Example 467]	1 to 500	2000 to 15000	1 to 500	2000 to 15000				
Cc1nc(C)c(-c2ncc(-c3cc4c(C(C)Nc5ccccc5C(=O)O)cc(F)cc4c(=O)n3C)cc2F)cc1F (stereo not drawn) [Example 471]					1 to 500	2000 to 15000	1 to 500	2000 to 15000
Cc1ccc(-c2ncc(-c3cc4c([C@@H](C)Nc5ccccc5C(=O)O)cc(F)cc4c(=O)n3C)cc2F)c(C)n1 [Example 472]	1 to 500	2000 to 15000	1 to 500	2000 to 15000				
Cc1ccc(-c2ncc(-c3cc4c(C(C)Nc5ccccc5C(=O)O)cc(F)cc4c(=O)n3C)cc2F)cn1 (stereo not drawn) [Example 473]					1 to 500	> 15000	1 to 500	2000 to 15000
Cc1cc(C(C)Nc2cccc(F)c2C(=O)O)c2cc(-c3ccc(COC(F)(F)F)nc3)n(C)c(=O)c2c1 (stereo not drawn) [Example 474]					1 to 500	> 15000	1 to 500	> 15000
Cc1ncc(N2CCN(c3cc4c([C@@H](C)Nc5cccc(F)c5C(=O)O)cc(F)cc4c(=O)n3C)CC2)s1 [Example 477]	1 to 500	> 15000	1 to 500	2000 to 15000				
Cc1ncc(N2CCN(c3cc4c([C@@H](C)Nc5ccccc5C(=O)O)cc(F)cc4c(=O)n3C)CC2)s1 [Example 478]	1 to 500	> 15000	1 to 500	2000 to 15000				
C[C@@H](Nc1ccccc1C(=O)O)c1cc(F)cc2c(=O)n(C)c(-c3cc(F)c4nn(C)cc4c3)cc12 [Example 483]	500 to 2000	> 15000	1 to 500	> 15000				
C[C@@H](Nc1cccc(F)c1C(=O)O)c1cc(F)cc2c(=O)n(C)c(-c3cc(F)c4nn(C)cc4c3)cc12 [Example 484]	500 to 2000	> 15000	500 to 2000	> 15000				
Cc1cc([C@@H](C)Nc2nccnc2C(=O)O)c2cc(N3CCN(CC(F)(F)F)CC3)n(C)c(=O)c2c1 [Example 485]	2000 to 15000	2000 to 15000	500 to 2000	> 15000				
Cc1nc(N2CCN(c3cc4c([C@@H](C)Nc5cccc(F)c5C(=O)O)cc(F)cc4c(=O)n3C)CC2)cs1 [Example 490]	1 to 500	2000 to 15000	1 to 500	2000 to 15000				
Cc1nc(N2CCN(c3cc4c([C@@H](C)Nc5ccccc5C(=O)O)cc(F)cc4c(=O)n3C)CC2)cs1 [Example 491]	1 to 500	2000 to 15000	1 to 500	2000 to 15000				
Cc1cnc(N2CCN(c3cc4c([C@@H](C)Nc5ccccc5C(=O)O)cc(F)cc4c(=O)n3C)CC2)c(C)n1 [Example 492]	1 to 500	2000 to 15000	1 to 500	2000 to 15000				
Cc1ncc(N2CCN(c3cc4c([C@@H](C)Nc5ccccc5C(=O)O)cc(F)cc4c(=O)n3C)CC2)c(C)n1 [Example 495]	1 to 500	2000 to 15000	1 to 500	500 to 2000				
C[C@@H](Nc1ccccc1C(=O)O)c1cc(F)cc2c(=O)n(C)c(-c3cc(F)c4nn(C(F)F)cc4c3)cc12 [Example 496]	500 to 2000	> 15000	1 to 500	> 15000				
C[C@@H](Nc1ccccc1C(=O)O)c1cc(F)cc2c(=O)n(C)c(-c3ccc(OC4CC4)nc3)cc12 [Example 497]	1 to 500	> 15000	1 to 500	> 15000				
CC(=O)N1CCN(c2cc3c([C@@H](C)Nc4ccccc4C(=O)O)cc(C)cc3c(=O)n2C)CC1 [Example 498]	500 to 2000	> 15000	500 to 2000	> 15000				

Compound	EC50 ([1]; Homo sapiens, T47D, 72 h) [nM]	EC50 ([2]; Homo sapiens, SK-BR-3, 72 h) [nM]	IC50 ([3]; Homo sapiens, T47D, 6 h) [nM]	IC50 ([4]; Homo sapiens, SK-BR-3, 6 h) [nM]	EC50 ([1]; 72 hours) [nM]	EC50 ([2]; 72 hours) [nM]	IC50 [3] [nM]	IC50 ([4]; 6 hours) [nM]
Cc1cc([C@@H](C)Nc2ccccc2C(=O)O)c2cc(N3CCN(C=O)CC3)n(C)c(=O)c2c1 [Example 499]	500 to 2000	> 15000	500 to 2000	> 15000				
Cc1ncc(-c2cc3c([C@@H](C)Nc4ccccc4C(=O)O)cc(F)cc3c(=O)n2C)s1 [Example 501]	1 to 500	> 15000	1 to 500	> 15000				
Cc1ccc(N2CCN(c3cc4c([C@@H](C)Nc5ccccc5C(=O)O)cc(F)cc4c(=O)n3C)CC2(C)C)cn1 [Example 502]	1 to 500	2000 to 15000	1 to 500	500 to 2000				
Cc1cc([C@@H](C)Nc2ncccc2C(=O)O)c2cc(N3CCN(CC(F)(F)F)CC3)n(C)c(=O)c2c1 [Example 503]	500 to 2000	> 15000	500 to 2000	> 15000				
Cc1cnc(-c2cc3c([C@@H](C)Nc4ccccc4C(=O)O)cc(F)cc3c(=O)n2C)s1 [Example 504]	1 to 500	> 15000	1 to 500	> 15000				
C[C@@H](Nc1ccccc1C(=O)O)c1cc(F)cc2c(=O)n(C)c(-c3cnc(-c4ncc(Cl)cc4F)c(F)c3)cc12 [Example 505]					1 to 500	> 15000	1 to 500	> 15000
C[C@@H](Nc1ccccc1C(=O)O)c1cc(F)cc2c(=O)n(C)c(-c3ccc(OC4COC4)nc3)cc12 [Example 507]					500 to 2000	> 15000	1 to 500	> 15000
C[C@@H](Nc1ccccc1C(=O)O)c1cc(F)cc2c(=O)n(C)c(-c3cnc(C(F)(F)F)s3)cc12 [Example 508]	500 to 2000	> 15000	500 to 2000	> 15000				
Cc1cc([C@@H](C)Nc2ccccc2C(=O)O)c2cc(N3CCN(c4cnc(C(F)(F)F)nc4)CC3)n(C)c(=O)c2c1 [Example 509]	1 to 500	2000 to 15000	1 to 500	2000 to 15000				
C[C@@H](Nc1ccccc1C(=O)O)c1cc(F)cc2c(=O)n(C)c(N3CCN(CC(F)(F)F)C(C)(C)C3)cc12 [Example 510]	1 to 500	> 15000	1 to 500	> 15000				
C[C@@H](Nc1ccccc1C(=O)O)c1cc(F)cc2c(=O)n(C)c(N3CC4CCC(C3)N4CC(F)(F)F)cc12 [Example 511]	1 to 500	2000 to 15000	1 to 500	> 15000				
Cc1cc(N2CCN(c3cc4c([C@@H](C)Nc5ccccc5C(=O)O)cc(F)cc4c(=O)n3C)CC2)on1 [Example 512]	1 to 500	2000 to 15000	1 to 500	2000 to 15000				
COc1ncc(-c2cc3c([C@@H](C)Nc4ccccc4C(=O)O)cc(F)cc3c(=O)n2C)s1 [Example 513]	1 to 500	> 15000	1 to 500	> 15000				
Cc1cnc(-c2ncc(-c3cc4c([C@@H](C)Nc5ccccc5C(=O)O)cc(F)cc4c(=O)n3C)cc2F)cn1 [Example 515]	1 to 500	2000 to 15000	1 to 500	> 15000				
Cc1cc([C@@H](C)Nc2ccccc2C(=O)O)c2cc(-c3cnc(C(C)C)cn3)n(C)c(=O)c2c1 [Example 516]	1 to 500	> 15000	1 to 500	> 15000				
Cc1cc([C@@H](C)Nc2ccccc2C(=O)O)c2cc(-c3cnc(C4CC4)cn3)n(C)c(=O)c2c1 [Example 517]	1 to 500	> 15000	1 to 500	> 15000				
